Test results reported in patent US20070111318A1 (priority 2003, published 2007).

Tested on: ddY mice
Settings: mouse, in vivo, ip

## C=C(C[C@@H]1C[C@H](O)[C@]2(C)O[C@@H]3C[C@@H]4O[C@@H]5C[C@]6(C)O[C@]7(C)CC[C@@H]8O[C@@H]9C[C@]%10(C)O[C@@H]%11C(C)=CC(=O)O[C@H]%11C[C@H]%10O[C@H]9C[C@@H](C)[C@H]8O[C@H]7C[C@H]6O[C@@]5(C)C/C=C\[C@H]4O[C@H]3C[C@H]2O1)C(=O)O [BTX-B5, brevetoxin B5]
  symptoms after injection: symptoms of neurotoxicity extremely similar to those caused by other brevetoxins
